Data on two compounds can be found in ChEMBL document CHEMBL1201862, “PubChem BioAssay data set” (2004).

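1) Cells in 96-well plates. 2) Compound, 48 h, 5 concentrations. 3) Linear interpolation between surrounding doses. 4) Unreached endpoint = highest concentration. GI50 is the concentration that inhibits growth by half.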 The source made the active and inactive calls. No stated cut-off is given here; in the data, active = GI50 up to about 1.1 µM and inactive = higher. Bounds are passed on as bounds.

Among the test systems are DLD-1; DMS-114; HOP-18; Hs-578T; LXFL 529; M19-MEL; RXF 631; SNB-78; XF498.
What all share (assay): inhibition of tumour cell growth, NCI panel, 48 h

On to `O=C1CC(c2n[nH]c3ccccc23)C(=O)N1c1ccccc1` (configuration not stated), for which the GI50 is > 100 µM (inactive) with DLD-1; > 100 µM (inactive) with DMS-114; > 100 µM (inactive) in the assay with HOP-18; > 100 µM (inactive) with Hs-578T; > 95.9 µM (inactive) in the assay with LXFL 529; > 100 µM (inactive) in the assay on M19-MEL. In addition, the GI50 with RXF 631, in the assay with SNB-78 and with XF498 was > 100 µM (inactive) throughout.

For `COC(=O)Nc1nc2cc(C(=O)c3cccs3)ccc2[nH]1` [NOCODAZOLE], the GI50 in the assay with DLD-1 is 0.0344 µM (active); with DMS-114 it was 0.0424 µM (active); in the assay on HOP-18, 32.8 µM (inactive); with LXFL 529, 0.0532 µM (active); in the assay on M19-MEL, 0.195 µM (active); in the assay on RXF 631, 0.07 µM (active). For the same compound, the GI50 was 0.0322 µM (active) in the assay on SNB-78 and 0.0314 µM (active) in the assay on XF498.
